# Results reported in patent publication US8658664B2 (The Board of Regents of the University of Texas System, priority 2008, dated 2014).
# Structures can show the parent of a compound that is named as a salt.
# Assays:
# [1] = system: pancreatic cancer cell line ASPC-1; assay: Orthotopic mouse model for pancreatic cancer metastasis; format: in vivo; conditions: ASPC-1-GFP injected into pancreas of nude mice; 20 mice per group; saline control 60%
# Method: An orthotopic mouse model for pancreatic cancer metastasis was established to test the effect of Cyc-T on pancreatic cancer. Green flourescent protein (GFP) was expressed in pancreatic cancer cell line ASPC-1, and then injected into pancreas of nude mice.
# The effect of cyc-T was tested in the mouse model for pancreatic cancer metastasis described supra.
# [2] = system: basal cell carcinomas (BCC); assay: Skin tumor shrinkage in mouse BCC models, topical application; format: in vivo; conditions: topical application for 21 days; K14 Ptch1 knockout and K14 SmoM2-YFP mice
# Method: Quantitative analysis was performed to calculate the percentage of tumor area in a given tissue area. Eight areas were used to measure the average value from each group, which was compared for the efficacy of the drugs.
# hedgehog signaling = assay: Motor neuron differentiation and embryonic body formation from embryonic stem cells; format: cell-based
# Description: To test stem cell functions, motor neuron differentiation experiments were used. First embryonic stem cells were used to form stem cell sphere (embryonic bodies, EB). In the presence of retinoic acid (RA) and sonic hedgehog or SMO agonist purmorphamine (AG), several types of neurons can be differentiated. These neurons can be distinguished by distinct markers. Hb9 is regarded as a marker for motor neuron (FIG. 6A).
smiles,measurement,setting,value
CC1=C2CC3C(CC=C4CC(O)CCC43C)C2CCC12OC1CC(C)CNC1C2C (stereo not shown) [Cyclopamine tartrate],frequency of tumor metastasis,[1],32%
same,efficacy on hedgehog signaling-mediated skin tumors (percentage of tumor area in tissue area),[2],very effective inhibitor for hedgehog signaling-mediated tumors
same,inhibition of hedgehog signaling / motor neuron differentiation (Hb9 marker),"hedgehog signaling; embryonic bodies with retinoic acid and sonic hedgehog or purmorphamine, compared with KAAD-cyclopamine",as effective as KAAD-cyclopamine
same,number and size of embryonic bodies (EBs),"hedgehog signaling; embryonic stem cell spheres, DAPI fluorescent microscopy",reduces the number and the size of EBs
